Experimental data reported in paper PMC3968014, “Design and Synthesis of a Library of Lead-Like 2,4-Bisheterocyclic Substituted Thiophenes as Selective Dyrk/Clk Inhibitors” (PLoS ONE, 2014).

Tests used:
[1] = test system: V79 hamster lung fibroblast cells; assay: ViaLight Toxicity Assay; assay type: cell-based; conditions: V79 cells, 5 µM, 48 hours
Procedure: V79 hamster lung fibroblast cells were plated at a density of 45,000 cells per well in a white 96 well plate and allowed to adhere and grow for 24 hours. The compounds were then applied as dilutions in cell culture medium (DMEM with 10% FCS and penicillin/streptomycin mix) at a final concentration of 5, 10, and 20 µM, respectively. The plate was further incubated for 48 hours at 37°C in a humidified atmosphere containing 5% CO2. The ATP level was detected with a LONZA ViaLight™ Plus Kit according to protocol 1 of the vendor's instructions. Luminescence was measured in a POLARstar plate reader (BMG Labtech, Offenburg, Germany). The background luminescence was obtained from equally treated, cell-free wells containing serum, and subtracted from all values. Inhibition values obtained for different compound concentrations were compared using the two-sided Student's t-test; levels of significance thus obtained are indicated by asterisks.

[2] = target: T1, SRPK1 (Homo sapiens, UniProt Q96SB4); assay: Selectivity panel SRPK1; assay type: biochemical; conditions: 5 µM inhibitor
T1 construct: purchased Life Technologies (Invitrogen SelectScreen); Dyrk1A, Dyrk2 and CK2α in-house or gifts

[3] = target: T2, MAP4K2 (GCK) (Homo sapiens, UniProt Q12851); assay: Selectivity panel MAP4K2; assay type: biochemical; conditions: 5 µM inhibitor
T2 construct: purchased Life Technologies (Invitrogen SelectScreen); Dyrk1A, Dyrk2 and CK2α in-house or gifts

[4] = target: T3, TAOK2 (TAO1) (Homo sapiens, UniProt Q9UL54); assay: Selectivity panel TAOK2; assay type: biochemical; conditions: 5 µM inhibitor
T3 construct: purchased Life Technologies (Invitrogen SelectScreen); Dyrk1A, Dyrk2 and CK2α in-house or gifts

[5] = target: T4, PRKCE (PKC epsilon) (Homo sapiens, UniProt Q02156); assay: Selectivity panel PRKCE; assay type: biochemical; conditions: 5 µM inhibitor
T4 construct: purchased Life Technologies (Invitrogen SelectScreen); Dyrk1A, Dyrk2 and CK2α in-house or gifts

[6] = target: T5, CHEK2 (CHK2) (Homo sapiens, UniProt O96017); assay: Selectivity panel CHEK2; assay type: biochemical; conditions: 5 µM inhibitor
T5 construct: purchased Life Technologies (Invitrogen SelectScreen); Dyrk1A, Dyrk2 and CK2α in-house or gifts
T5 sequence (O96017 whole entry): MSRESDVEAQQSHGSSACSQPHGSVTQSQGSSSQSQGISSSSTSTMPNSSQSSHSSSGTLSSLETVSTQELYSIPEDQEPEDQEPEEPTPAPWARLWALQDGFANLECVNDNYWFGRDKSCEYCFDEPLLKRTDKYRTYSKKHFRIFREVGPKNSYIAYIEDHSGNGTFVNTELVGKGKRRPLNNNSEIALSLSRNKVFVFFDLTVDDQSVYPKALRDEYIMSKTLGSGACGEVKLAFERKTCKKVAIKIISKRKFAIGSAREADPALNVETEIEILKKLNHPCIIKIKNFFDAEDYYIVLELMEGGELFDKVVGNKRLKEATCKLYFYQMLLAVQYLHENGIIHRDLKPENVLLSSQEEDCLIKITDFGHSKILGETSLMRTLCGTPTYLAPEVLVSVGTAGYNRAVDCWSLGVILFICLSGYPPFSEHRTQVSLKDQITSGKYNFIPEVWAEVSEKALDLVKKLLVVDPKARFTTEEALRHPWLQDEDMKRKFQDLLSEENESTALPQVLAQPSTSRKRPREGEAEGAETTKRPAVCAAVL

[7] = target: T6, BRSK1 (SAD1) (Homo sapiens, UniProt Q8TDC3); assay: Selectivity panel BRSK1; assay type: biochemical; conditions: 5 µM inhibitor
T6 construct: purchased Life Technologies (Invitrogen SelectScreen); Dyrk1A, Dyrk2 and CK2α in-house or gifts
T6 sequence (Q8TDC3 whole entry): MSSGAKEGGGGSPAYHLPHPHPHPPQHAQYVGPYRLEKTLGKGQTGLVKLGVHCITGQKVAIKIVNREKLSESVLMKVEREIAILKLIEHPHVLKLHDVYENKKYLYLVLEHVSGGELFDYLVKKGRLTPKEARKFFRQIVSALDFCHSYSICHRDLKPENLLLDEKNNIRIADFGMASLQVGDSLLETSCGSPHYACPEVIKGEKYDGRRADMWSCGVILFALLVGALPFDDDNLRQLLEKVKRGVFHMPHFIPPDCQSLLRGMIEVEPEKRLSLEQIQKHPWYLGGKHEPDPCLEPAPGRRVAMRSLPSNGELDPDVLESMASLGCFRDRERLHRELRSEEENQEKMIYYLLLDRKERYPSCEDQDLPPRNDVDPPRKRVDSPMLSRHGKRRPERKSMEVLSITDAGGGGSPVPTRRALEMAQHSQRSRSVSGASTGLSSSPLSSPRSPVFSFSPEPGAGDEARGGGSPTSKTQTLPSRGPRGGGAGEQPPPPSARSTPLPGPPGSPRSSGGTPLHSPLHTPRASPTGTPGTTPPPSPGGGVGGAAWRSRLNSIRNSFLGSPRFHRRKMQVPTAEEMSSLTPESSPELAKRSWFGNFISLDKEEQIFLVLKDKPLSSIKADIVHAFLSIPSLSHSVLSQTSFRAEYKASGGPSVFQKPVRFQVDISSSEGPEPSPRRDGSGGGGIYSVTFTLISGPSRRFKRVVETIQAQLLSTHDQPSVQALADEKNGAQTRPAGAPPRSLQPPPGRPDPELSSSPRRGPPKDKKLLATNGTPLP

[8] = target: T7, PRKD1 (PKC mu, PKD1) (Homo sapiens, UniProt Q15139); assay: Selectivity panel PRKD1; assay type: biochemical; conditions: 5 µM inhibitor
T7 construct: purchased Life Technologies (Invitrogen SelectScreen); Dyrk1A, Dyrk2 and CK2α in-house or gifts
T7 sequence (Q15139 whole entry): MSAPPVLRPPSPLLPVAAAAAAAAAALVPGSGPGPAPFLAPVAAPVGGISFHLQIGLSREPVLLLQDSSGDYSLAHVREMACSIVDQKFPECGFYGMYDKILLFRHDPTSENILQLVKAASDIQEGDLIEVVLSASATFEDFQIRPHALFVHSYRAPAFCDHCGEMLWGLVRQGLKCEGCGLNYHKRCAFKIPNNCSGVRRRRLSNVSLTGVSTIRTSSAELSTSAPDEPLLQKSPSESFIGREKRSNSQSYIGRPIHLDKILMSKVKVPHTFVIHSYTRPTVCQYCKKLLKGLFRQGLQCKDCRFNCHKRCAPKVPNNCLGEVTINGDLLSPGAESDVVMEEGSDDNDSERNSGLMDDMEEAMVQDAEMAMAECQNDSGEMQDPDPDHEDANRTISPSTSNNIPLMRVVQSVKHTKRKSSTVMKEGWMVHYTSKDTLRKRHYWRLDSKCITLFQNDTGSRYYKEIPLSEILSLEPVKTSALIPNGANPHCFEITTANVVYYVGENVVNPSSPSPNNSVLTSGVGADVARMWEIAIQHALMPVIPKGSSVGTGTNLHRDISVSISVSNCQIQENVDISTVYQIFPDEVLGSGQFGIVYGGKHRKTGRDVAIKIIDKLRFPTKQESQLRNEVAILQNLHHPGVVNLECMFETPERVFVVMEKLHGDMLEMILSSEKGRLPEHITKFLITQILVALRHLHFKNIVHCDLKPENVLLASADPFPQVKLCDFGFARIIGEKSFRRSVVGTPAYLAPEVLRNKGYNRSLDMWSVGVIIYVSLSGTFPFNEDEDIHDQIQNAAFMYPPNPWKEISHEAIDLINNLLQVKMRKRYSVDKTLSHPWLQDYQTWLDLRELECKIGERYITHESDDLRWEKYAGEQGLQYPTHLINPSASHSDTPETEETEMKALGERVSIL

[9] = target: T8, PASK (Homo sapiens, UniProt Q96RG2); assay: Selectivity panel PASK (CAMK); assay type: biochemical; conditions: 5 µM inhibitor; listed under CAMK
T8 construct: purchased Life Technologies (Invitrogen SelectScreen); Dyrk1A, Dyrk2 and CK2α in-house or gifts

[10] = target: T9, IKBKB (IKK beta) (Homo sapiens, UniProt O14920); assay: Selectivity panel IKBKB; assay type: biochemical; conditions: 5 µM inhibitor
T9 construct: purchased Life Technologies (Invitrogen SelectScreen); Dyrk1A, Dyrk2 and CK2α in-house or gifts

[11] = target: T10, ZAK (Homo sapiens, UniProt Q9NYL2); assay: Selectivity panel ZAK; assay type: biochemical; conditions: 5 µM inhibitor
T10 construct: purchased Life Technologies (Invitrogen SelectScreen); Dyrk1A, Dyrk2 and CK2α in-house or gifts

[12] = target: T11, ACVR1 (ALK2) (Homo sapiens, UniProt Q04771); assay: Selectivity panel ACVR1; assay type: biochemical; conditions: 5 µM inhibitor
T11 construct: purchased Life Technologies (Invitrogen SelectScreen); Dyrk1A, Dyrk2 and CK2α in-house or gifts
T11 sequence (Q04771 21-509): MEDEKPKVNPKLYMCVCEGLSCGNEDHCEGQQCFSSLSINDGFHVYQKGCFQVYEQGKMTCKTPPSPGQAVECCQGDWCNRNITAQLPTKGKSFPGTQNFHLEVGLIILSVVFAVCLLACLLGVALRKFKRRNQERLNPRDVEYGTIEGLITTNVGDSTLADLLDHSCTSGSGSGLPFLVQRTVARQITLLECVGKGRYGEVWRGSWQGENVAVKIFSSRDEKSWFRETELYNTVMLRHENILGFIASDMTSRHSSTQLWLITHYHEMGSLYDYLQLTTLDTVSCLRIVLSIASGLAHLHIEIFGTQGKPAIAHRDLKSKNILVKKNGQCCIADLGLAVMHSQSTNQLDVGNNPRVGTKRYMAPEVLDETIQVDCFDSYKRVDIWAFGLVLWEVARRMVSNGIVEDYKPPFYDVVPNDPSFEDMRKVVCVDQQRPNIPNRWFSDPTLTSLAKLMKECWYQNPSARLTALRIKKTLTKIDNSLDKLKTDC

[13] = target: T12, TGFBR1 (ALK5) (Homo sapiens, UniProt P36897); assay: Selectivity panel TGFBR1; assay type: biochemical; conditions: 5 µM inhibitor
T12 construct: purchased Life Technologies (Invitrogen SelectScreen); Dyrk1A, Dyrk2 and CK2α in-house or gifts
T12 sequence (P36897 34-503): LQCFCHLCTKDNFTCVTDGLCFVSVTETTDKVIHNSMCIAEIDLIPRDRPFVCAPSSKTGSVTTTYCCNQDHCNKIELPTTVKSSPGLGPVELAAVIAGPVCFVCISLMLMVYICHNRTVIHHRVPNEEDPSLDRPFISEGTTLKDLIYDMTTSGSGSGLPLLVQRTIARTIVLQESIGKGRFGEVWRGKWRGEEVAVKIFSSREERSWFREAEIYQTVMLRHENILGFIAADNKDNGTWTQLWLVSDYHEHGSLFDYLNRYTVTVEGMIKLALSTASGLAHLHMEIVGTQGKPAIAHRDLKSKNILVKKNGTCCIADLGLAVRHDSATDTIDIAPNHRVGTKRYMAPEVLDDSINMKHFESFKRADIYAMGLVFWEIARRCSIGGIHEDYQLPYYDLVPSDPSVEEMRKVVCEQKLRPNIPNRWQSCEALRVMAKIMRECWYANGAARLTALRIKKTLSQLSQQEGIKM

[14] = target: T13, LYN A (Homo sapiens, UniProt P07948); assay: Selectivity panel LYN A; assay type: biochemical; conditions: 5 µM inhibitor
T13 construct: purchased Life Technologies (Invitrogen SelectScreen); Dyrk1A, Dyrk2 and CK2α in-house or gifts

[15] = target: T14, ABL1 (Homo sapiens, UniProt P00519); assay: Selectivity panel ABL1; assay type: biochemical; conditions: 5 µM inhibitor
T14 construct: purchased Life Technologies (Invitrogen SelectScreen); Dyrk1A, Dyrk2 and CK2α in-house or gifts

[16] = target: T15, EPHA5 (Homo sapiens, UniProt P54756); assay: Selectivity panel EPHA5; assay type: biochemical; conditions: 5 µM inhibitor
T15 construct: purchased Life Technologies (Invitrogen SelectScreen); Dyrk1A, Dyrk2 and CK2α in-house or gifts

[17] = target: T16, MET (cMet) (Homo sapiens, UniProt P08581); assay: Selectivity panel MET; assay type: biochemical; conditions: 5 µM inhibitor
T16 construct: purchased Life Technologies (Invitrogen SelectScreen); Dyrk1A, Dyrk2 and CK2α in-house or gifts
T16 sequence (P08581 25-1390): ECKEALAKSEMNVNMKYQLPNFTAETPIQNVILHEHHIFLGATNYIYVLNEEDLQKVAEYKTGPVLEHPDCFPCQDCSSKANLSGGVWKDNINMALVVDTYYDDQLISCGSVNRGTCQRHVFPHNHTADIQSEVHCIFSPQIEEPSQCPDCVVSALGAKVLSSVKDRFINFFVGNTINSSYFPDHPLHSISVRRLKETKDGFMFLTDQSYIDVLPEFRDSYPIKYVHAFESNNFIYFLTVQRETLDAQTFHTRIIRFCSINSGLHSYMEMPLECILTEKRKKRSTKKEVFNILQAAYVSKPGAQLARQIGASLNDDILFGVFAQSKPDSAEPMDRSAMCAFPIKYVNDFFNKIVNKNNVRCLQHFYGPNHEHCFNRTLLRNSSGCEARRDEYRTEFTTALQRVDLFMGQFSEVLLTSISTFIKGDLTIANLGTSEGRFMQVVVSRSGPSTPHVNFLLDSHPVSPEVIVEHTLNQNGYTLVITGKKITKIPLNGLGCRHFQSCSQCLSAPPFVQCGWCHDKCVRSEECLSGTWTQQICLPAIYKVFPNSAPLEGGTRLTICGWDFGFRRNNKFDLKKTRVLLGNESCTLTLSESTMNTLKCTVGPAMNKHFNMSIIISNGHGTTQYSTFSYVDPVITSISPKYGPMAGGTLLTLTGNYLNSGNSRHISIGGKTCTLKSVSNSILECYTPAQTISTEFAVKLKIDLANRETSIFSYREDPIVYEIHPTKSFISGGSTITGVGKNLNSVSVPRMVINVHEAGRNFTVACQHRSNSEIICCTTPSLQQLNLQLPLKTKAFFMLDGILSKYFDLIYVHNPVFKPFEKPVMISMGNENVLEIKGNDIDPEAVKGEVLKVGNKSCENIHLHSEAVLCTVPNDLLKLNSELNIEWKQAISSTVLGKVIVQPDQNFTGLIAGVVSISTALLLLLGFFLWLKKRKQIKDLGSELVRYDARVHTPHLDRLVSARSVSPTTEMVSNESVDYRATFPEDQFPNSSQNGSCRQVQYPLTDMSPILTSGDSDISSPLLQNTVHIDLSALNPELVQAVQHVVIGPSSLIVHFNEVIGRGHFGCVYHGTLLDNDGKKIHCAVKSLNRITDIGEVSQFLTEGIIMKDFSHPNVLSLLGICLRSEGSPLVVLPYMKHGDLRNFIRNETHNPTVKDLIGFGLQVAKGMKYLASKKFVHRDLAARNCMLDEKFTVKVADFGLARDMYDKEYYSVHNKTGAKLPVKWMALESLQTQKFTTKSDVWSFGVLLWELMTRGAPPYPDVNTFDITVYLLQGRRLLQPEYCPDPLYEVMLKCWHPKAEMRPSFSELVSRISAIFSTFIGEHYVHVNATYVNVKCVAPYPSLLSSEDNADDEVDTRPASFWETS

[18] = target: T17, PTK6 (Brk) (Homo sapiens, UniProt Q13882); assay: Selectivity panel PTK6; assay type: biochemical; conditions: 5 µM inhibitor
T17 construct: purchased Life Technologies (Invitrogen SelectScreen); Dyrk1A, Dyrk2 and CK2α in-house or gifts
T17 sequence (Q13882 whole entry): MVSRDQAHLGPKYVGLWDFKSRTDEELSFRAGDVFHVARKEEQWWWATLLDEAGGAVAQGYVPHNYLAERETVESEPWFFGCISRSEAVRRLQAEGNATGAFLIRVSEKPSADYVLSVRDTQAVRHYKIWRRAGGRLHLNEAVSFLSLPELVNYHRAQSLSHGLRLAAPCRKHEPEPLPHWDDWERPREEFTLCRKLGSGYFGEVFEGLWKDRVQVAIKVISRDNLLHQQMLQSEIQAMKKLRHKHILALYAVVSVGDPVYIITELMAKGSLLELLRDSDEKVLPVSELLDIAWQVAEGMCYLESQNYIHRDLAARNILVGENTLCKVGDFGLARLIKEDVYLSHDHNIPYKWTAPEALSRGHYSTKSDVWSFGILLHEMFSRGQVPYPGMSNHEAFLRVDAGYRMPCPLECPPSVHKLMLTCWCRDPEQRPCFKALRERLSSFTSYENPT

[19] = test system: U2OS osteosarcoma cells; assay: ROS Assay (dihydroethidium); assay type: cell-based; conditions: 48 hours
Procedure: U2OS osteosarcoma cells were plated on six well cell culture plates (5*10^5 cells/well). […]. Cells were washed with phosphate–buffered saline (PBS) and incubated for 30 min at 37°C in the dark with 10 µM dihydroethidium (DHE) in PBS and washed with PBS. The cells were then trypsinized, collected by centrifugation, and lysed with lysis buffer (100 mM Tris/HCl, pH 7.3, 2 mM EGTA, 2% Triton X100). The amount of ethidium produced by reactive oxygen species (ROS) was quantified by measuring the fluorescence (Ex485, Em620) in a POLARstar plate reader (BMG Labtech, Offenburg, Germany). Values obtained for different compound concentrations were compared using the two-sided Student's t-test; levels of significance thus obtained are indicated by asterisks.

| SMILES | influence on cell viability (cellular ATP levels) [1] | inhibition at 5 µM [2] [%] | inhibition at 5 µM [3] [%] | inhibition at 5 µM [4] [%] | inhibition at 5 µM [5] [%] | inhibition at 5 µM [6] [%] | inhibition at 5 µM [7] [%] | inhibition at 5 µM [8] [%] | inhibition at 5 µM [9] [%] | inhibition at 5 µM [10] [%] | inhibition at 5 µM [11] [%] | inhibition at 5 µM [12] [%] | inhibition at 5 µM [13] [%] | inhibition at 5 µM [14] [%] | inhibition at 5 µM [15] [%] | inhibition at 5 µM [16] [%] | inhibition at 5 µM [17] [%] | inhibition at 5 µM [18] [%] | concentration at which enhancement of reporter dye fluorescence (ROS) starts [19] [µM] |
| --- | --- | --- | --- | --- | --- | --- | --- | --- | --- | --- | --- | --- | --- | --- | --- | --- | --- | --- | --- |
| c1cncc(-c2csc(-c3cncs3)c2)c1 [Compound 48, 3-[5-(1,3-thiazol-5-yl)thiophen-3-yl]pyridine] | no influence on cell viability | 1 | 6 | -6 | -5 | -2 | -4 | -5 | 27 | 12 | 11 | 51 | 22 | 13 | 6 | -6 | -12 | 34 | – |
| c1cncc(-c2cc(-c3cncs3)cs2)c1 [Compound 29, 3-[4-(1,3-thiazol-5-yl)thiophen-2-yl]pyridine] | no influence on cell viability | 3 | 32 | -6 | -18 | 1 | 11 | -1 | 23 | 8 | 11 | 51 | 24 | 16 | 2 | -9 | 1 | 30 | 0.2 |
